# Measured values reported in patent US20180015066A1, “DRUG COMPLEXES COMPRISING ALPHA-FETOPROTEIN” (UNIVERSITY HEALTH NETWORK, priority 2015, published 2018).
# System: cell lines carrying AFP receptor
# Assay: Anti-cancer activities: in vitro antiproliferative assay (IC50)
# Type: cell-based
# Settings: samples in PBS pH 7.4; concentration expressed as Pac or Pac-succinate; read-out: IC50 ± std. error (nM) for Pac or Pac-succinate
row,Molecule,IC50 [nM]
1,CC(=O)O[C@H]1C(=O)[C@@]2(C)[C@H]([C@H](OC(=O)c3ccccc3)[C@]3(O)C[C@H](OC(=O)[C@H](O)[C@@H](NC(=O)c4ccccc4)c4ccccc4)C(C)=C1C3(C)C)[C@]1(OC(C)=O)CO[C@@H]1C[C@@H]2O [Paclitaxel],3.4 ± 0.8
2,paclitaxel succinate [Paclitaxel-Succinate],26.5 ± 11.3
